Assays:
[1] = system: mouse; conditions: Subchronic oral toxicity in rodents, Feed, dose end: 3 month, group: systemic
[2] = system: mouse; conditions: Carcinogenicity; other; Oral; Feed; group: systemic; systemic / hematology / anemia / anemia - nos + systemic / pathology microscopic / bone marrow / hemosiderosis + systemic / pathology …
[3] = system: dog; conditions: Chronic toxicity; beagle; Oral; Capsule; dose end: 52 week; group: systemic; systemic / hematology / anemia / anemia - hemolytic + systemic / hematology / erythrocyte (rbc) count differential / erythrocyte (rbc) + …
[4] = system: rat; conditions: Subchronic oral toxicity in rodents, sprague dawley, Feed, dose end: 90 day, group: systemic
[5] = system: dog; conditions: Subchronic oral toxicity in nonrodent, beagle, Capsule, dose end: 13 week, group: systemic
[6] = system: rat; conditions: Prenatal developmental toxicity study, sprague dawley, Oral, Gavage/Intubation, dose end: 15 GD
[7] = system: rat; conditions: Combined chronic toxicity/carcinogenicity, sprague dawley, Oral, Feed, dose end: 24 month, group: systemic
[8] = system: rat; conditions: Multigenerational reproductive toxicity study, other, Oral, Feed, dose end: 2 generation
[9] = system: rat; conditions: Sub-acute repeat dose toxicity; sprague dawley; Oral; Feed; dose end: 28 day; group: systemic; systemic / clinical chemistry / cholesterol / cholesterol + systemic / clinical chemistry / triglycerides / triglycerides + systemic / …
[10] = system: rat; conditions: Subchronic oral toxicity in rodents, sprague dawley, Feed, dose end: 13 week, group: systemic, systemic / clinical chemistry / cholesterol / cholesterol + systemic / clinical chemistry / globulins / globulins + systemic / clinical …
[11] = systemic / organ weight / spleen / relative to body weight
[12] = systemic / organ weight / spleen / relative to body weight + systemic / pathology microscopic / spleen / hemosiderosis + systemic / in life …
[13] = systemic / in life observation / body weight / body weight + systemic / in life observation / food consumption / food consumption + systemic…
[14] = systemic / hematology / anemia / anemia - hemolytic + systemic / hematology / erythrocyte (rbc) count differential / erythrocyte (rbc) + …
[15] = group: developmental, developmental / developmental malformation / trunk / umbilical hernia
[16] = group: maternal, systemic / in life observation / clinical signs / hemorrhagic perineal discharge
[17] = group: maternal, systemic / in life observation / clinical signs / hemorrhagic perineal discharge + reproductive / reproductive performance / …
[18] = systemic / hematology / anemia / anemia - hemolytic + systemic / in life observation / body weight / body weight + systemic / in life …
[19] = systemic / in life observation / clinical signs / alopecia
[20] = group: offspring, systemic / in life observation / body weight / offspring (pup) weight + systemic / in life observation / body weight / offspring (pup) …
[21] = group: parental, systemic / organ weight / spleen / absolute + systemic / organ weight / spleen / relative to body weight + systemic / pathology microscopic…
[22] = group: parental, systemic / organ weight / spleen / relative to body weight

`CSC(=O)c1cccc2nnsc12` [Acibenzolar-S-methyl] showed an LEL [1, 11] of 47.4 mg/kg/day, an NEL [1, 11] of under 47.4 mg/kg/day and an LOAEL [1, 12] of 152 mg/kg/day. For the same compound, the NOAEL [1, 12] was 30.6 mg/kg/day, the LEL [2] was 234 mg/kg/day and the LOAEL [2] was 234 mg/kg/day. For the same compound, the NEL [2] was 10.8 mg/kg/day, the NOAEL [2] was 10.8 mg/kg/day and the LEL [3] was 200 mg/kg/day. It also gave an LOAEL [3] of 200 mg/kg/day, an NEL [3] of 25 mg/kg/day and an NOAEL [3] of 25 mg/kg/day. It also gave an LEL ([4]; systemic / clinical chemistry / sodium / sodium) of 126 mg/kg/day, an LOAEL [4, 13] of 516 mg/kg/day and an NEL [4, 13] of 24.6 mg/kg/day. For the same compound, the NOAEL [4, 13] was 126 mg/kg/day, the LOAEL [5, 14] was 200 mg/kg/day and the NEL [5, 14] was 10 mg/kg/day. It also gave an NOAEL [5, 14] of 50 mg/kg/day, an LEL ([5]; systemic / organ weight / liver / absolute + systemic / organ weight / liver / relative to body weight) of 50 mg/kg/day and an LEL [6, 15] of 10 mg/kg/day. It also gave an LOAEL [6, 15] of 10 mg/kg/day, an NEL [6, 15] of under 10 mg/kg/day and an NOAEL [6, 15] of under 10 mg/kg/day. The LEL [6, 16] was 50 mg/kg/day, the LOAEL [6, 16] was 400 mg/kg/day and the NEL [6, 17] was 10 mg/kg/day. For the same compound, the NOAEL [6, 17] was 200 mg/kg/day, the LOAEL [7, 18] was 312 mg/kg/day and the NOAEL [7, 18] was 96.9 mg/kg/day. For the same compound, the LEL [7, 19] was 0.9 mg/kg/day, the NEL [7, 19] was under 0.9 mg/kg/day and the LEL [8, 20] was 100 mg/kg/day. It also gave an LOAEL [8, 20] of 100 mg/kg/day, an NEL [8, 20] of 10 mg/kg/day and an NOAEL [8, 20] of 10 mg/kg/day. For the same compound, the LOAEL [8, 21] was 100 mg/kg/day, the NOAEL [8, 21] was 10 mg/kg/day and the LEL [8, 22] was 1 mg/kg/day. It also gave an NEL [8, 22] of under 1 mg/kg/day.

`O=B[O-].O=B[O-].[Ba+2]` [Barium metaborate] gave an LEL [9] of 881 mg/kg/day, an LOAEL [9] of 881 mg/kg/day and an NEL [9] of 459 mg/kg/day. For the same compound, the NOAEL [9] was 459 mg/kg/day, the LEL [10] was 349 mg/kg/day and the LOAEL [10] was 349 mg/kg/day. For the same compound, the NEL [10] was 70 mg/kg/day and the NOAEL [10] was 70 mg/kg/day.

— EPA's ToxRefDB 2
